Common to all, as to assay type: biochemical
The target in test [1] is T1, Human recombinant PDE3A (hPDE3A) (Homo sapiens, UniProt Q14432).
T1 construct: purchased Scottish Biomedical; host or cells: Sf9 insect cells
As to the kind of experiment: In vitro assay PDE3A (SPA, 3H-cAMP hydrolysis).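 As to all read-outs here: the method names PDE3A and the table heading PDE3B.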 The conditions noted are these: for IC50: hPDE3B pIC50, read-out: pIC50 (converted); for Emax: read-out: hPDE3B Emax, read-out: Emax. The gist of the method: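 Radiometric SPA measuring [3H]-cAMP hydrolysis (0.4 μM cAMP, 2.4 μCi/ml) over 60 min at room temperature, in Tris pH 7.8 buffer with MgCl2 and EGTA, 1% DMSO. Enzyme: recombinant human brain PDE3A expressed in Sf9 cells, used as partially purified lysate. Counts compared with enzyme-free blanks and vehicle controls.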

For test [2], the target named is T2, Human recombinant PDE10A (hPDE10A) (Homo sapiens, UniProt Q9Y233).
T2 construct: His tag (inferred from metal chelate purification); made in house; host or cells: Sf9 insect cells (baculovirus)
T2 sequence (Q9Y233 267-1055): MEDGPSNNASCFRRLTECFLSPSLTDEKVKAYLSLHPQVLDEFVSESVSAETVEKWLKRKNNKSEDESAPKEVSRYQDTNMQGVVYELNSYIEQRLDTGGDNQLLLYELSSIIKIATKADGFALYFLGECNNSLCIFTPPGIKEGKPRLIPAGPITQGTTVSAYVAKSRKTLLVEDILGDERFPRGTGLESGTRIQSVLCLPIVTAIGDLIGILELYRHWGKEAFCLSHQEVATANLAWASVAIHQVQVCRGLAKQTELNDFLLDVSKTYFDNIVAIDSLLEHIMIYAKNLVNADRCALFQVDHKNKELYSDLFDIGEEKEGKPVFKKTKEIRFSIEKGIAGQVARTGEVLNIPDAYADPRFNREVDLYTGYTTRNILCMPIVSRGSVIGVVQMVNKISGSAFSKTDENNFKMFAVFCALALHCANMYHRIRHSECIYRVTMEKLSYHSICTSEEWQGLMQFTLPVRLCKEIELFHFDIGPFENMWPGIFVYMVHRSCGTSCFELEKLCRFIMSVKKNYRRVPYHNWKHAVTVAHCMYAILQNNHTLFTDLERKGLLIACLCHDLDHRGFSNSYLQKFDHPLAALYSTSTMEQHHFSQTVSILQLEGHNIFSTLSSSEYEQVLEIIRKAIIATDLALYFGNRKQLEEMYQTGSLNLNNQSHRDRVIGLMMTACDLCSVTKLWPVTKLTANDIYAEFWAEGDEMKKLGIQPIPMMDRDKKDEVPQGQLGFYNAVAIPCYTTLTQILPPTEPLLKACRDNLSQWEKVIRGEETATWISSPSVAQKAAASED
As to the kind of experiment: In vitro assay PDE10A, human clone (SPA, 3H-cAMP hydrolysis). The conditions noted are these: human clone (h), default; for Emax: read-out: hPDE10A2 Emax; for IC50: read-out: hPDE10A2 pIC50 (converted). A digest of the protocol:
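Hydrolysis of 3H-cAMP (60 nM cAMP, 0.008 μCi tracer) proceeded for 60 min at room temperature, with the product detected by SPA bead scintillation counting. The enzyme was hPDE10A from baculovirus-infected Sf9 cells in Tris pH 7.8 buffer with MgCl2 and EGTA, and compounds were at 1% DMSO final. Blanks lacked enzyme.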

For test [3], the target named is T3, Human recombinant PDE2A (hPDE2A) (Homo sapiens, UniProt O00408).
T3 construct: His tag (inferred from metal chelate purification); made in house; host or cells: Sf9 insect cells (baculovirus)
T3 sequence (O00408 whole entry): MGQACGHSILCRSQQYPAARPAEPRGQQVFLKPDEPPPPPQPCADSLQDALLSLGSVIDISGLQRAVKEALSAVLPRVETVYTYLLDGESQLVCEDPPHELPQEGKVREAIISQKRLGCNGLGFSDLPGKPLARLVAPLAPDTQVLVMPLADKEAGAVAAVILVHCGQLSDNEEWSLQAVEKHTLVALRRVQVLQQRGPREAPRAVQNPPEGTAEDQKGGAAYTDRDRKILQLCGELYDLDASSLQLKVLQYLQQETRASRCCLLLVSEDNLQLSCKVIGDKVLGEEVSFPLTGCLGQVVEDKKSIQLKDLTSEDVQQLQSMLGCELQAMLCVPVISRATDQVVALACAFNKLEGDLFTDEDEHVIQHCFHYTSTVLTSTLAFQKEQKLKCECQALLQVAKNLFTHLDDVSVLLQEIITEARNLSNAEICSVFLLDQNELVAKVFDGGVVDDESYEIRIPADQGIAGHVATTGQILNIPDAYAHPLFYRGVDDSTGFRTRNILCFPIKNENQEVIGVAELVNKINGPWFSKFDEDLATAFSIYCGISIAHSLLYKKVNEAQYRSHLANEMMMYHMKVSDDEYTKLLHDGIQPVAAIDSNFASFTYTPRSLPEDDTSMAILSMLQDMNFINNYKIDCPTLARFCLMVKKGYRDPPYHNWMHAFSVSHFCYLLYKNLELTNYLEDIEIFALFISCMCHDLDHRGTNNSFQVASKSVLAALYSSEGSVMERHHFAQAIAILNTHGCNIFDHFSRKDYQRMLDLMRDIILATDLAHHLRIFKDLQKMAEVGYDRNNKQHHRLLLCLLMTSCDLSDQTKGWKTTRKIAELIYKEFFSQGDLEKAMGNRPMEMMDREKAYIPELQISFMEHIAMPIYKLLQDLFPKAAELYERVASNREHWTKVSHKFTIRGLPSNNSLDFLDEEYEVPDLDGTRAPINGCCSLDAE
As to the kind of experiment: In vitro assay PDE2A (SPA, 3H-cGMP hydrolysis). The conditions noted are these: for IC50: read-out: hPDE2A pIC50 (converted); for Emax: read-out: hPDE2A Emax.

[4] abbreviates: human recombinant PDE2A, 10 μM cGMP substrate.

Structures are written as SMILES. Like-named read-outs stand apart in the source and are kept apart here.

T1 sequence (Q14432 whole entry): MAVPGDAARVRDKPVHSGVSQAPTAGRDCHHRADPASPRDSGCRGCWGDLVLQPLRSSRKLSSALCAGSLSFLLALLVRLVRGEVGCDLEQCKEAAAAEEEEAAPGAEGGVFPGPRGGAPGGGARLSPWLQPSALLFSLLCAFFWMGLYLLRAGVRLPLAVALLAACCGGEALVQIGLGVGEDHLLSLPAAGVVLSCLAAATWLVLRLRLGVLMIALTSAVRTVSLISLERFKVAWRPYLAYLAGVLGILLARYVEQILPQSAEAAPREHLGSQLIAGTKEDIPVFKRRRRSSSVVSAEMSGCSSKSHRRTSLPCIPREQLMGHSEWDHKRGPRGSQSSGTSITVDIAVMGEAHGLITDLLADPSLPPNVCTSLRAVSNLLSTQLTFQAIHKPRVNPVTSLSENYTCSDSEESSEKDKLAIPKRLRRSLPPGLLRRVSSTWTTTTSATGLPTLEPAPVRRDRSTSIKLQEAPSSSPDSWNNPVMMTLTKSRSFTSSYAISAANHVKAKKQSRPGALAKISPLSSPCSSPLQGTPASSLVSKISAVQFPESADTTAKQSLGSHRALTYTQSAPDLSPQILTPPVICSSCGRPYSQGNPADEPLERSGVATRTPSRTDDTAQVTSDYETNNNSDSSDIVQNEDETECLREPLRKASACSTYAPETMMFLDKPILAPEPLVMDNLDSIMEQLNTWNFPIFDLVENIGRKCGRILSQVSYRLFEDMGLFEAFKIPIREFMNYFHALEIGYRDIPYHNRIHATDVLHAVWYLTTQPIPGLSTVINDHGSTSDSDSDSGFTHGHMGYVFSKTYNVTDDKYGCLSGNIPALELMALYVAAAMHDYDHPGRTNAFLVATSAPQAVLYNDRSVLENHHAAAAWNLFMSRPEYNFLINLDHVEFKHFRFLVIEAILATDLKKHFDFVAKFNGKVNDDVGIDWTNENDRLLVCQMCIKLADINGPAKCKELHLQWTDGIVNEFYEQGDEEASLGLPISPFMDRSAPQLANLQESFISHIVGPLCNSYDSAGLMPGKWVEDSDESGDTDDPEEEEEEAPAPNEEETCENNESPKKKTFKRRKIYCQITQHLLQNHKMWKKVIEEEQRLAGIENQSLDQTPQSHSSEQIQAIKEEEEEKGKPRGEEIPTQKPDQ

On to `C[C@@H]1CCN(C(=O)c2cc3n(n2)CCO3)C[C@H]1c1cc(C(F)F)nc2ncnn12` [Compound 166], for which the IC50 was more than 10000 nM in test [1], 2240 nM in test [2], 93.3 nM in test [3] (setting [4]) and 93.3 nM in test [3]. Further, the Emax (usually the maximal effect, on the per cent scale that the assay sets) in test [1] came out at 32%; in test [2], 81%; in test [3] (human recombinant PDE2A), 98%; in test [3], 98%.
As to `C[C@@H]1CCN(C(=O)c2ccc(C(F)(F)F)nc2)C[C@H]1c1cc(C(F)F)nc2ncnn12` [Compound 167], the IC50 is 5370 nM in test [1], 2000 nM in test [2], 97.7 nM in test [3] (setting [4]) and 97.7 nM in test [3]. The maximal response (Emax) in test [1] was 64%; in test [2], 81%; in test [3] (human recombinant PDE2A), 97%; in test [3] it was 97%.
Take `C[C@@H]1CCN(C(=O)c2ccc(O)c(F)c2)C[C@H]1c1cc(C(F)F)nc2ncnn12` [Compound 168]: the IC50 in test [1] is 5130 nM; in test [2], 53.7 nM; in test [3] (setting [4]) it was 3.98 nM; in test [3], 3.98 nM. Moreover, the Emax in test [1] is 66%; in test [2], 99%; in test [3] (human recombinant PDE2A) it was 98%; in test [3] it was 98%.
As for `COc1ccc2nc(C(=O)N3CC[C@@H](C)[C@H](c4cc(C(F)F)nc5ncnn45)C3)sc2c1` [Compound 171], the IC50 is 1150 nM in test [1], 355 nM in test [2], 11.7 nM in test [3] (setting [4]) and 11.7 nM in test [3]. Moreover, the maximal response (Emax) in test [1] is 93%; in test [2] it was 97%; in test [3] (human recombinant PDE2A), 99%; in test [3], 99%.
`COc1ccc2c(c1)cc(C(=O)N1CC[C@@H](C)[C@H](c3cc(C(F)F)nc4ncnn34)C1)n2C` [Compound 172]: the IC50 is 269 nM in test [1], 32.4 nM in test [2], 4.57 nM in test [3] (setting [4]) and 4.57 nM in test [3]. Further, the maximal response (Emax) came out at 98% in test [1], 100% in test [2], 101% in test [3] (human recombinant PDE2A) and 101% in test [3].
Take `C[C@@H]1CCN(C(=O)c2cnc(O)c(Cl)c2)C[C@H]1c1cc(C(F)F)nc2ncnn12` [Compound 173]: the IC50 in test [1] was more than 10000 nM; in test [2], 302 nM; in test [3] (setting [4]), 13.8 nM; in test [3] it was 13.8 nM. The Emax was determined as 31% in test [1], 96% in test [2], 101% in test [3] (human recombinant PDE2A) and 101% in test [3].
As for `C[C@@H]1CCN(C(=O)c2cnc(N(C)C)nc2)C[C@H]1c1cc(C(F)F)nc2ncnn12` [Compound 174], the IC50 in test [1] was 1320 nM; in test [2], 575 nM; in test [3] (setting [4]) it was 5.25 nM; in test [3] it was 5.25 nM. In addition, the Emax was determined as 85% in test [1], 88% in test [2], 99% in test [3] (human recombinant PDE2A) and 99% in test [3].
In the case of `C[C@@H]1CCN(C(=O)c2cccc(C(C)(C)C#N)c2)C[C@H]1c1cc(C(F)F)nc2ncnn12` [Compound 175], the IC50 in test [1] is 6030 nM; in test [2] it was 141 nM; in test [3] (setting [4]), 4.9 nM; in test [3] it was 4.9 nM. Also, the Emax in test [1] amounted to 71%; in test [2], 98%; in test [3] (human recombinant PDE2A) it was 100%; in test [3], 100%.
With `C[C@@H]1CCN(C(=O)c2cccc3ncoc23)C[C@H]1c1cc(C(F)F)nc2ncnn12` [Compound 176], the IC50 is 8710 nM in test [1], 891 nM in test [2], 9.12 nM in test [3] (setting [4]) and 9.12 nM in test [3]. The maximal effect (Emax) in test [1] was found to be 56%; in test [2], 88%; in test [3] (human recombinant PDE2A), 100%; in test [3] it was 100%.

The record behind these values is US10947242B2, “[1,2,4]triazolo[1,5and#8208;A]pyrimidine compounds as PDE2 inhibitors” (Janssen Pharmaceutica NV, priority 2016, dated 2021).
